Reference: PMC9218685, “Legume Plant Peptides as Sources of Novel Antimicrobial Molecules Against Human Pathogens” (Frontiers in Molecular Biosciences, 2022)
Values after ≈ are worked out from the molar mass of the structure shown. Ends that are not written are not given here. Peptide text beside a SMILES is read from it.

Columns and labels:
Format in all cases: cell-based
[1] = test system: Acinetobacter baumannii (ATCC 17978); assay: microbe, parasite or virus in culture; details: for Activity against A. baumannii: 3 h, peptides ≤25 µM; for MBC Acinetobacter baumannii: ATCC 17978, 3 h
Excerpt: (§1) The following pathogenic bacterial strains were used: The Gram-positive Enterococcus faecalis (ATCC 29212), Staphylococcus aureus (HNCMO112011), Listeria monocytogenes (ATCC 19111) and the Gram-negative Pseudomonas aeruginosa (ATCC 27853), Escherichia coli (ATCC 8739), Salmonella enterica (ATCC 13076), Klebsiella pneumoniae (NCTC 13440), Acinetobacter baumannii (ATCC 17978) obtained from the ATCC (United States) and NCTC (National Collection of Type Cultures–England). For the antifungal experiment the Candida albicans W01 strain ([Ördögh et al., 2014]) was used. Antimicrobial activities of peptides against ∼10^7 log phase bacteria were tested in Potassium-Phosphate Buffer (PPB, pH 7.4) as described by [Jenei et al. (2020)] while anti-Candida assays were done according to [Szerencsés et al. (2021)]. The two-fold dilution series of peptides ranged from 25 μM to 0.125 μM, while that of the antibiotics ampicillin (Merck) and miconazole (Duchefa Biochemie) from […] to 0.1 μM. The lowest concentration of the antimicrobial agents, which completely eliminated viable bacteria or C. albicans were considered as the minimal bactericidal concentration (MBC) and minimal fungicidal concentration (MFC).
(§2) The minimal bactericidal concentrations (MBCs) were determined after 3 h of treatment of ∼10^7 log phase bacteria with 2-fold serial dilution of peptides from 25 µM to 0.8 µM. Only 25 of the 50 cationic M. truncatula peptides had activity at ≤25 µM (Supplementary Table S1). […] Three peptides were only active against two bacterial strains; NCR649 against L. monocytogenes and A. baumannii, NCR281 against L. monocytogenes and P. aeruginosa and NCR350 against A. baumannii and P. aeruginosa. […] None of the anionic NCR peptides affected the survival of the tested bacterial strains.

[2] = test system: Pseudomonas aeruginosa (ATCC 27853); details: for MBC Pseudomonas aeruginosa: ATCC 27853, 3 h
Excerpt: as §1, §2

[3] = test system: E. coli, S. enteritidis, P. aeruginosa, L. monocytogenes, S. aureus, E. faecalis, K. pneumoniae and A. baumannii; assay: Antimicrobial activity assay, spectrum over the eight tested pathogenic bacteria; details: 3 h treatment of ~10^7 log phase bacteria, peptides 25 to 0.8 µM; active = MBC ≤25 µM
Excerpt: as §1
We investigated the antimicrobial activity of 78 NCR peptides from M. truncatula and 12 NCRs from other IRLC legumes as well as their shorter derivatives against E. coli, S. enteritidis, P. aeruginosa, L. monocytogenes, S. aureus, E. faecalis, K. pneumoniae and A. baumannii (Supplementary Table S1). In the selection of the M. truncatula peptides, we considered their symbiotic expression levels but also their physicochemical properties. The antimicrobial activity of NCRs has so far been attributed to cationic peptides, with the exception of one anionic peptide. To investigate whether other anionic NCRs are antimicrobial, in addition to the cationic peptides, neutral and anionic NCRs were also included covering a broad range of peptides with different net charges (NC: from 7.8 to −10.2) and isoelectric points (pI: from 10.69 to 2.95). 50 peptides had positive net charge and pI > 7.0, while 28 peptides had negative net charge and pI < 7.0 (Supplementary Table S1A). Of the other legumes, only cationic NCR peptides were studied (Supplementary Table S1B).
as §2

Compound	Activity against A. baumannii ([1]; ~10^7 log phase bacteria)	MBC Acinetobacter baumannii [1]	MBC Pseudomonas aeruginosa [2]	further results
CC1(C)S[C@@H]2[C@H](NC(=O)[C@H](N)c3ccccc3)C(=O)N2[C@H]1C(=O)O [Ampicillin, reference compound]	–	–	–	MBC ([1]; Acinetobacter baumannii, ATCC17978, ~10^7 log phase bacteria, Potassium-Phosphate Buffer pH 7.4, 3 h treatment, two-fold dilution series, lowest concentration completely eliminating viable bacteria, read-out: MBC, minimal bactericidal concentration against A. baumannii): 10200 µM (≈ 3580 µg/mL)
CC[C@H](C)[C@H](NC(=O)[C@H](Cc1ccc(O)cc1)NC(=O)[C@H](CC(N)=O)NC(=O)[C@H](CCCNC(=N)N)NC(=O)[C@@H](NC(=O)[C@H](CCC(N)=O)NC(=O)[C@H](CCCNC(=N)N)NC(=O)[C@H](CS)NC(=O)[C@H](CC(=O)O)NC(=O)[C@H](CCCCN)NC(=O)[C@H](CC(N)=O)NC(=O)[C@@H](NC(=O)[C@@H](NC(=O)[C@H](CS)NC(=O)[C@H](CC(N)=O)NC(=O)[C@H](CCCNC(=N)N)NC(=O)[C@H](CO)NC(=O)[C@@H](NC(=O)[C@@H]1CCCN1C(=O)[C@H](CC(C)C)NC(=O)[C@@H](N)Cc1ccccc1)[C@@H](C)O)[C@@H](C)CC)[C@@H](C)O)C(C)C)C(=O)N[C@@H](C)C(=O)N[C@@H](CCCNC(=N)N)C(=O)N[C@@H](CS)C(=O)N[C@@H](CCCNC(=N)N)C(=O)N[C@@H](CCCCN)C(=O)NCC(=O)N[C@@H](CCC(N)=O)C(=O)N[C@@H](CS)C(=O)N[C@@H](CC(C)C)C(=O)N[C@@H](CCC(N)=O)C(=O)N[C@@H](CO)C(=O)N1CCC[C@H]1C(=O)N[C@H](C(=O)N[C@@H](CCCNC(=N)N)C(=O)O)C(C)C [NCR030] (H-FLPTSRNCITNKDCRQVRNYIARCRKGQCLQSPVR-OH; N-terminus assumed)	only against A. baumannii	3.125 µM (≈ 12.9 µg/mL)	–	–
CC[C@H](C)[C@H](NC(=O)[C@H](Cc1ccccc1)NC(=O)[C@@H](NC(=O)[C@H](CCCCN)NC(=O)[C@H](CC(=O)O)NC(=O)[C@@H]1CCCN1C(=O)[C@@H](N)Cc1ccccc1)[C@@H](C)CC)C(=O)NCC(=O)N[C@@H](CC(=O)O)C(=O)N[C@@H](CS)C(=O)N[C@@H](CCCCN)C(=O)N[C@H](C(=O)N[C@@H](CC(=O)O)C(=O)N[C@@H](CCCCN)C(=O)N[C@@H](CC(=O)O)C(=O)N[C@@H](CS)C(=O)N[C@@H](CCCCN)C(=O)N1CCC[C@H]1C(=O)N[C@@H](CCCCN)C(=O)N[C@@H](CCCNC(=N)N)C(=O)NCC(=O)N[C@H](C(=O)N[C@@H](CC(N)=O)C(=O)N[C@@H](Cc1ccccc1)C(=O)N[C@@H](CCCNC(=N)N)C(=O)N[C@@H](CS)C(=O)N[C@@H](CCCNC(=N)N)C(=O)N[C@@H](CCCCN)C(=O)NCC(=O)N[C@@H](CCCCN)C(=O)N[C@@H](CS)C(=O)N[C@@H](Cc1ccc(O)cc1)C(=O)N1CCC[C@H]1C(=O)N[C@@H](CCCNC(=N)N)C(=O)O)C(C)C)[C@@H](C)O [NCR032] (H-FPDKIFIGDCKTDKDCKPKRGVNFRCRKGKCYPR-OH; N-terminus assumed)	only against A. baumannii	3.125 µM (≈ 12.6 µg/mL)	–	–
CC[C@H](C)[C@H](NC(=O)[C@H](Cc1ccc(O)cc1)NC(=O)[C@H](CC(N)=O)NC(=O)[C@H](CCCCN)NC(=O)[C@@H](NC(=O)[C@H](CO)NC(=O)[C@@H]1CCCN1C(=O)[C@H](CS)NC(=O)[C@H](CC(=O)O)NC(=O)[C@H](CCCCN)NC(=O)[C@H](CC(=O)O)NC(=O)[C@@H](NC(=O)[C@@H](NC(=O)[C@H](CS)NC(=O)[C@@H](NC(=O)[C@H](CCCNC(=N)N)NC(=O)[C@@H](NC(=O)[C@@H](NC(=O)[C@@H]1CCCN1C(=O)[C@H](CC(C)C)NC(=O)[C@H](Cc1ccc(O)cc1)NC(=O)[C@@H](N)[C@@H](C)O)[C@@H](C)O)[C@@H](C)O)[C@@H](C)CC)[C@@H](C)CC)[C@@H](C)O)C(C)C)C(=O)NCC(=O)N[C@@H](CCCNC(=N)N)C(=O)N[C@@H](CS)C(=O)N[C@@H](CCCNC(=N)N)C(=O)N[C@@H](CCCCN)C(=O)NCC(=O)N[C@@H](Cc1ccc(O)cc1)C(=O)N[C@@H](CS)C(=O)N[C@@H](CCC(N)=O)C(=O)N[C@@H](C)C(=O)N[C@@H](CO)C(=O)N[C@@H](CCCCN)C(=O)N[C@@H](CC(C)C)C(=O)N[C@@H](CCCNC(=N)N)C(=O)O [NCR042] (H-TYLPTTRICITDKDCPSVKNYIGRCRKGYCQASKLR-OH; N-terminus assumed)	–	–	25 µM (≈ 104 µg/mL)	–
CC[C@H](C)[C@H](NC(=O)[C@H](CCSC)NC(=O)[C@H](CCCNC(=N)N)NC(=O)[C@H](CCCNC(=N)N)NC(=O)CNC(=O)[C@@H]1CCCN1C(=O)[C@H](CC(C)C)NC(=O)[C@H](CS)NC(=O)[C@H](Cc1ccc(O)cc1)NC(=O)[C@H](CCCCN)NC(=O)[C@@H](NC(=O)[C@@H]1CCCN1C(=O)[C@H](CO)NC(=O)[C@H](CS)NC(=O)[C@H](CC(=O)O)NC(=O)[C@H](CO)NC(=O)[C@@H](NC(=O)[C@H](CCCCN)NC(=O)[C@@H](NC(=O)[C@H](CS)NC(=O)[C@H](CCC(=O)O)NC(=O)[C@H](CC(=O)O)NC(=O)[C@@H](N)CO)C(C)C)C(C)C)[C@@H](C)O)C(=O)N[C@@H](CS)C(=O)N[C@@H](CO)C(=O)N[C@@H](CCCCN)C(=O)NCC(=O)N[C@@H](CCCCN)C(=O)N[C@@H](CS)C(=O)N[C@@H](CCCCN)C(=O)N[C@@H](CS)C(=O)N[C@@H](CC(C)C)C(=O)N[C@@H](CCCNC(=N)N)C(=O)N[C@@H](CC(N)=O)C(=O)N[C@@H](CCSC)C(=O)N[C@@H](Cc1ccccc1)C(=O)N[C@H](C(=O)N1CCC[C@H]1C(=O)N[C@H](C(=O)N1CCC[C@H]1C(=O)O)[C@@H](C)CC)[C@@H](C)CC [NCR135] (H-SDECVKVSDCSPTKYCLPGRRMICSKGKCKCLRNMFIPIP-OH; N-terminus assumed)	–	–	–	Antibacterial spectrum over the eight tested bacterial strains [3]: against three strains
CC[C@H](C)[C@H](NC(=O)[C@H](CC(N)=O)NC(=O)[C@H](Cc1c[nH]cn1)NC(=O)[C@@H]1CCCN1C(=O)[C@@H]1CCCN1C(=O)[C@H](CCSC)NC(=O)[C@H](CCCNC(=N)N)NC(=O)[C@@H]1CCCN1C(=O)[C@H](CS)NC(=O)[C@H](CC(=O)O)NC(=O)[C@H](CCCCN)NC(=O)[C@H](CC(=O)O)NC(=O)[C@@H](NC(=O)[C@H](CC(C)C)NC(=O)[C@H](CS)NC(=O)[C@@H]1CCCN1C(=O)[C@H](CCCNC(=N)N)NC(=O)[C@H](CC(C)C)NC(=O)[C@@H](NC(=O)[C@H](CCSC)NC(=O)CNC(=O)[C@@H](N)Cc1ccccc1)[C@@H](C)O)[C@@H](C)O)C(=O)N[C@@H](CCCCN)C(=O)N[C@@H](CS)C(=O)N[C@@H](CCCNC(=N)N)C(=O)N[C@@H](CCCCN)C(=O)NCC(=O)N[C@@H](Cc1c[nH]cn1)C(=O)N[C@@H](CS)C(=O)N[C@H](C(=O)N1CCC[C@H]1C(=O)N[C@H](C(=O)NCC(=O)N[C@@H](CCCCN)C(=O)N1CCC[C@H]1C(=O)N[C@@H](Cc1ccccc1)C(=O)N[C@@H](CCCCN)C(=O)O)[C@@H](C)CC)C(C)C [NCR137] (H-FGMTLRPCLTDKDCPRMPPHNIKCRKGHCVPIGKPFK-OH; N-terminus assumed)	–	25 µM (≈ 106 µg/mL)	–	–
CC[C@H](C)[C@H](NC(=O)[C@H](CC(N)=O)NC(=O)[C@H](Cc1ccc(O)cc1)NC(=O)[C@H](CCC(N)=O)NC(=O)[C@H](CO)NC(=O)[C@@H](NC(=O)[C@H](CCCCN)NC(=O)[C@@H]1CCCN1C(=O)[C@H](CS)NC(=O)[C@H](CC(=O)O)NC(=O)[C@H](CCCCN)NC(=O)[C@H](CC(=O)O)NC(=O)[C@@H](NC(=O)[C@@H](NC(=O)[C@H](CS)NC(=O)[C@@H]1CCCN1C(=O)CNC(=O)[C@H](CO)NC(=O)[C@H](CC(N)=O)NC(=O)[C@@H](NC(=O)[C@H](Cc1ccc(O)cc1)NC(=O)[C@@H]1CCCN1C(=O)[C@@H](NC(=O)[C@H](CO)NC(=O)[C@H](CC(=O)O)NC(=O)[C@H](Cc1ccc(O)cc1)NC(=O)[C@@H](NC(=O)[C@@H](N)CO)C(C)C)[C@@H](C)CC)C(C)C)C(C)C)[C@@H](C)O)C(C)C)C(=O)N[C@@H](CCCNC(=N)N)C(=O)N[C@@H](CS)C(=O)N[C@@H](CCCNC(=N)N)C(=O)N[C@@H](CCCCN)C(=O)NCC(=O)N[C@@H](CCC(N)=O)C(=O)N[C@@H](CS)C(=O)N[C@@H](C)C(=O)N[C@@H](CCCNC(=N)N)C(=O)N[C@H](C(=O)N[C@@H](CCCNC(=N)N)C(=O)N[C@H](C(=O)O)C(C)C)[C@@H](C)CC [NCR361] (H-SVYDSIPYVNSGPCVTDKDCPKVSQYNIRCRKGQCARIRV-OH; N-terminus assumed)	–	–	25 µM (≈ 113 µg/mL)	–
VYDSKYFQIASPCVNDKDCPQFKNNNVRCRRGFCVNSGGATQKCLGCPSLK-OH (cysteines drawn unpaired) [NCR350]	active	12.5 µM	25 µM	Activity against P. aeruginosa ([2]; 3 h, ~10^7 log phase bacteria, peptides ≤25 µM): active
